Data: patent US20250136606A1, “MODULATORS OF TRPML, THEIR COMPOSITIONS AND METHODS OF USE” (Caraway Therapeutics, Inc., priority 2021, published 2025)
Where two headings read alike, the source gives them in different places.

Assays:
Assay type in all cases: cell-based
[1] = biological target: TRPML1 (Homo sapiens, UniProt Q9GZU1); test: Fluorescent TRPML1 assay (Fluo4-AM calcium fluorescence in doxycycline-induced HEK-293 Trex cells)
Procedure, shortened: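 hTRPML1 (mutated for cell-surface expression) in HEK-293 Trex, dox 0.5 ug/mL o/n; Fluo4-AM 1 uM ~60 min, then ~60 min de-esterification, dark; modified Ringer's + 10 mM Ca. Cmpds 20 uM–6 nM final, half-log, n=3. Ex480/Em540; % activity vs ctrls; EC50 by nonlinear regression.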

[2] = biological target: T1, TRPML2 (Homo sapiens, UniProt Q8IZK6); test: Fluorescent TRPML2 assay (performed as for TRPML1, substituting the TRPML2 subtype)
T1 construct: expressed in transfected cells
T1 sequence (Q8IZK6 1-566): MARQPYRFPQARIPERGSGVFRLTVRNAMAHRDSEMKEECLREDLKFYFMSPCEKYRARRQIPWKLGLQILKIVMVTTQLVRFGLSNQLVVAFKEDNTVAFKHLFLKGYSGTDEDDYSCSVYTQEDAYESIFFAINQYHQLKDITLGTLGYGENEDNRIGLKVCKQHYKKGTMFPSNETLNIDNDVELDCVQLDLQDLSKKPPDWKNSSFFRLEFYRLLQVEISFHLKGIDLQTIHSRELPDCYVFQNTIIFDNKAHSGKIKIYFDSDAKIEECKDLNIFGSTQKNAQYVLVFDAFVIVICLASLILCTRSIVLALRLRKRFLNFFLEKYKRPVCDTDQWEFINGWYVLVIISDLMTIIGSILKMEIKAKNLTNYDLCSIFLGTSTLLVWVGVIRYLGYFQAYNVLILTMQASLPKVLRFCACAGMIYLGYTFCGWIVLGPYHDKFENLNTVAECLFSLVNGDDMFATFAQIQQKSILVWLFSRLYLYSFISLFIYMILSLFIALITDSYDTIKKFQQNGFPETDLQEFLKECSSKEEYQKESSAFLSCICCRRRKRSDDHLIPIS
Procedure, shortened: (§1)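 Calcium-influx readout: Fluo4 fluorescence at 480/540 nm, normalised to positive and negative controls per plate, EC50 fitted by non-linear regression. Cells were HEK-293 Trex stable lines, channel expression induced overnight with 0.5 ug/mL doxycycline; tested at 20 micromolar down to 6 nanomolar final, half-log steps, triplicate.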

[3] = biological target: T2, TRPML3 (Homo sapiens, UniProt Q8TDD5); test: Fluorescent TRPML3 assay (performed as for TRPML1, substituting the TRPML3 subtype)
T2 construct: expressed in transfected cells
T2 sequence (Q8TDD5 1-553): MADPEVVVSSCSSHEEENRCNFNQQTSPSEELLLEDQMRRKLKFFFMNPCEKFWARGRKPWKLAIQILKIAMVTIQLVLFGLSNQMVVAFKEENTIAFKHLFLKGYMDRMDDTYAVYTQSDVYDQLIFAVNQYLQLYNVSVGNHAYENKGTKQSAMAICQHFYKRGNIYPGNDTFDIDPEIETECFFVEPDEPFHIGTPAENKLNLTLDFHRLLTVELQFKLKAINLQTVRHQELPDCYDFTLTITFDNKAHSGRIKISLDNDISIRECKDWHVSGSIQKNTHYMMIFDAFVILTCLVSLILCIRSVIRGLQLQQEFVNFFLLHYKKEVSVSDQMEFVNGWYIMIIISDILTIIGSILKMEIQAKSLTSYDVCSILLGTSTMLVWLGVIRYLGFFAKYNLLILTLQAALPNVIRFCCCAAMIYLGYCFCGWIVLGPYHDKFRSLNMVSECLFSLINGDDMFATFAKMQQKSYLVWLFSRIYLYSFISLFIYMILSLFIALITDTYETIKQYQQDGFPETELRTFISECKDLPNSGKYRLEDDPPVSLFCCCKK
Procedure, shortened: as §1

TRPML1, sequence (Q9GZU1 whole entry L15A/L16A/L577A/L578A, form open): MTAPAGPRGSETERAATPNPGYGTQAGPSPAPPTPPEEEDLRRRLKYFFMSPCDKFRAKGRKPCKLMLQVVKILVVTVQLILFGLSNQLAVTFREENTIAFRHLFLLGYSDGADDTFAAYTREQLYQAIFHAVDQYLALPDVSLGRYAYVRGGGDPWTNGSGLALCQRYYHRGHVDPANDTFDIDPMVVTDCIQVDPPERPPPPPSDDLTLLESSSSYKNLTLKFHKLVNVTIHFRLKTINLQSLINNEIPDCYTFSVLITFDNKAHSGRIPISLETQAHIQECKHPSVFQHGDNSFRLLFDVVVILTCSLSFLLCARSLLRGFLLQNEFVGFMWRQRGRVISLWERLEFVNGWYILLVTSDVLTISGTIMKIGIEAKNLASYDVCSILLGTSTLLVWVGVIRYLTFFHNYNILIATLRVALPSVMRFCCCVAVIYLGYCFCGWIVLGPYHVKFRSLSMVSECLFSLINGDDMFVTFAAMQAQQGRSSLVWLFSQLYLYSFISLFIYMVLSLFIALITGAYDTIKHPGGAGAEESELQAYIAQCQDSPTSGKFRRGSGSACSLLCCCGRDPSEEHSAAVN

Row | SMILES | EC50 ([1]; fluorescent calcium assay) | EC50 ([2]; fluorescent calcium assay) | EC50 ([3]; fluorescent calcium assay) | EC50 [1] | EC50 [2] | EC50 [3]
1 | Cc1cc(C#N)cc(-n2cc(C(F)(F)F)c3c(N4C[C@@H](C)N(C(=O)OC(C)(C)C)C[C@@H]4C)ncnc32)n1 [Compound 517, tert-butyl (2R,5S)-4-(7-(4-cyano-6-methylpyridin-2-yl)-5-(trifluoromethyl)-7H-pyrrolo[2,3-d]pyrimidin-4-yl)-2,5-dimethylpiperazine-1-carboxylate] | – | – | – | < 100 nM | 100 to 500 nM | < 100 nM
2 | C[C@H]1COCCN1c1cn(-c2cccc(C#N)c2)c2ncnc(N3CCN(C(=O)OC(C)(C)C)C[C@@H]3C)c12 [Compound 379, tert-butyl (S)-4-(7-(3-cyanophenyl)-5-((S)-3-methylmorpholino)-7H-pyrrolo[2,3-d]pyrimidin-4-yl)-3-methylpiperazine-1-carboxylate] | 500 to 2000 nM | > 2000 nM | 500 to 2000 nM | – | – | –
3 | C[C@@H]1CN(c2ncnc3c2c(-c2cccnc2)cn3-c2cncc(C(F)(F)F)c2)[C@@H](C)CN1C(=O)OC(C)(C)C [Compound 179, tert-butyl (2R,5S)-2,5-dimethyl-4-(5-(pyridin-3-yl)-7-(5-(trifluoromethyl)pyridin-3-yl)-7H-pyrrolo[2,3-d]pyrimidin-4-yl)piperazine-1-carboxylate] | 500 to 2000 nM | > 2000 nM | 100 to 500 nM | – | – | –
4 | CC(C)c1cn(-c2cc(C(F)(F)F)ccn2)c2ncnc(N3C[C@@H](C)N(C(=O)OC(C)(C)C)C[C@@H]3C)c12 [Compound 699, tert-butyl (2R,5S)-4-(5-isopropyl-7-(4-(trifluoromethyl)pyridin-2-yl)-7H-pyrrolo[2,3-d]pyrimidin-4-yl)-2,5-dimethylpiperazine-1-carboxylate] | – | – | – | < 100 nM | 100 to 500 nM | < 100 nM
5 | C[C@H]1CN(C(=O)OC(C)(C)C)CCN1c1ncnc2c1c(C1CC1)cn2-c1cc(C#N)cnn1 [Compound 439, tert-butyl (S)-4-(7-(5-cyanopyridazin-3-yl)-5-cyclopropyl-7H-pyrrolo[2,3-d]pyrimidin-4-yl)-3-methylpiperazine-1-carboxylate] | 100 to 500 nM | 500 to 2000 nM | < 100 nM | – | – | –
6 | C[C@@H]1CN(c2nccc3c2c(C2CC2)cn3-c2cccc(F)c2)CCN1C(=O)OC(C)(C)C [Compound 704, tert-butyl (R)-4-(3-cyclopropyl-1-(3-fluorophenyl)-1H-pyrrolo[3,2-c]pyridin-4-yl)-2-methylpiperazine-1-carboxylate] | – | – | – | < 100 nM | < 100 nM | < 100 nM
7 | C[C@H]1CN(C(=O)OC(C)(C)C)CCN1c1ncnc2c1c(C1CC1)cn2-c1ncc(C#N)[nH]1 [Compound 440, tert-butyl (S)-4-(7-(5-cyano-1H-imidazol-2-yl)-5-cyclopropyl-7H-pyrrolo[2,3-d]pyrimidin-4-yl)-3-methylpiperazine-1-carboxylate] | > 2000 nM | > 2000 nM | 500 to 2000 nM | – | – | –
8 | CC(C)(C)OC(=O)N1CCN(c2ncnc3c2c(C2CCOCC2)cn3-c2cccc(Cl)c2)CC1 [Compound 465, tert-butyl 4-(7-(3-chlorophenyl)-5-(tetrahydro-2H-pyran-4-yl)-7H-pyrrolo[2,3-d]pyrimidin-4-yl)piperazine-1-carboxylate] | 100 to 500 nM | 500 to 2000 nM | < 100 nM | – | – | –
9 | C[C@@H]1CN(c2ncnc3c2c(C2CCC2)cn3-c2cccc(F)c2)[C@@H](C)CN1C(=O)OC(C)(C)C [Compound 646, tert-butyl (2R,5S)-4-(5-cyclobutyl-7-(3-fluorophenyl)-7H-pyrrolo[2,3-d]pyrimidin-4-yl)-2,5-dimethylpiperazine-1-carboxylate] | – | – | – | 500 to 2000 nM | > 2000 nM | 100 to 500 nM

Second part, the compound after the results:

Row | EC50 ([1]; fluorescent calcium assay) | EC50 ([2]; fluorescent calcium assay) | EC50 ([3]; fluorescent calcium assay) | EC50 [1] | EC50 [2] | EC50 [3] | SMILES
10 | < 100 nM | 500 to 2000 nM | 100 to 500 nM | – | – | – | C[C@@H]1CN(c2ncnc3c2c(-c2ccncc2)cn3-c2cc(F)cc(F)c2)CCN1C(=O)OC(C)(C)C [Compound 216, tert-butyl (R)-4-(7-(3,5-difluorophenyl)-5-(pyridin-4-yl)-7H-pyrrolo[2,3-d]pyrimidin-4-yl)-2-methylpiperazine-1-carboxylate]
11 | < 100 nM | 100 to 500 nM | < 100 nM | – | – | – | C[C@H]1CN(C(=O)OC(C)(C)C)CCN1c1ncnc2c1c(-c1cccnc1)cn2-c1cccc(Cl)c1 [Compound 225, tert-butyl (S)-4-(7-(3-chlorophenyl)-5-(pyridin-3-yl)-7H-pyrrolo[2,3-d]pyrimidin-4-yl)-3-methylpiperazine-1-carboxylate]
12 | < 100 nM | 100 to 500 nM | < 100 nM | – | – | – | C[C@H]1CN(C(=O)OC(C)(C)C)CCN1c1ncnc2c1c(C1CC1)cn2-c1cc(F)cc(F)c1 [Compound 203, tert-butyl (S)-4-(5-cyclopropyl-7-(3,5-difluorophenyl)-7H-pyrrolo[2,3-d]pyrimidin-4-yl)-3-methylpiperazine-1-carboxylate]
13 | 100 to 500 nM | 500 to 2000 nM | < 100 nM | – | – | – | Cc1cc(C#N)cc(-n2cc(C3CC3)c3c(N4CCN(C(=O)OC(C)(C)C)C[C@@H]4C)ncnc32)n1 [Compound 403, tert-butyl (S)-4-(7-(4-cyano-6-methylpyridin-2-yl)-5-cyclopropyl-7H-pyrrolo[2,3-d]pyrimidin-4-yl)-3-methylpiperazine-1-carboxylate]
14 | < 100 nM | < 100 nM | < 100 nM | – | – | – | CC(C)(C)OC(=O)N1CCN(c2ncnc3c2c(-c2ccccc2F)cn3-c2cc(C#N)ccn2)C2(CC2)C1 [Compound 435, tert-butyl 4-(7-(4-cyanopyridin-2-yl)-5-(2-fluorophenyl)-7H-pyrrolo[2,3-d]pyrimidin-4-yl)-4,7-diazaspiro[2.5]octane-7-carboxylate]
15 | 100 to 500 nM | > 2000 nM | < 100 nM | – | – | – | C[C@H]1CN(C(=O)OC(C)(C)C)CCN1c1ncnc2c1c(-n1ccnc1)cn2-c1cccc(Cl)c1 [Compound 323, tert-butyl (S)-4-(7-(3-chlorophenyl)-5-(1H-imidazol-1-yl)-7H-pyrrolo[2,3-d]pyrimidin-4-yl)-3-methylpiperazine-1-carboxylate]
16 | < 100 nM | 100 to 500 nM | < 100 nM | – | – | – | C[C@@H]1CN(c2ncnc3c2c(-c2ccccc2F)cn3-c2ccccn2)[C@@H](C)CN1C(=O)OC(C)(C)C [Compound 134, tert-butyl (2R,5S)-4-(5-(2-fluorophenyl)-7-(pyridin-2-yl)-7H-pyrrolo[2,3-d]pyrimidin-4-yl)-2,5-dimethylpiperazine-1-carboxylate]
17 | 100 to 500 nM | 500 to 2000 nM | 100 to 500 nM | – | – | – | Cc1cncc(-n2cc(C3CC3)c3c(N4CCN(C(=O)OC(C)(C)C)C[C@@H]4C)ncnc32)c1 [Compound 150, tert-butyl (S)-4-(5-cyclopropyl-7-(5-methylpyridin-3-yl)-7H-pyrrolo[2,3-d]pyrimidin-4-yl)-3-methylpiperazine-1-carboxylate]
18 | < 100 nM | 100 to 500 nM | < 100 nM | – | – | – | C[C@@H]1CN(c2ncnc3c2c(N2CCCC2)cn3-c2cc(F)c(F)c(F)c2)CCN1C(=O)OC(C)(C)C [Compound 362, tert-butyl (R)-2-methyl-4-(5-(pyrrolidin-1-yl)-7-(3,4,5-trifluorophenyl)-7H-pyrrolo[2,3-d]pyrimidin-4-yl)piperazine-1-carboxylate]
19 | 100 to 500 nM | 500 to 2000 nM | < 100 nM | – | – | – | C[C@H]1CN(C(=O)OC(C)(C)C)CCN1c1ncnc2c1c(N1CCCC1)cn2-c1cc(Cl)cc(C#N)c1 [Compound 399, tert-butyl (S)-4-(7-(3-chloro-5-cyanophenyl)-5-(pyrrolidin-1-yl)-7H-pyrrolo[2,3-d]pyrimidin-4-yl)-3-methylpiperazine-1-carboxylate]
20 | < 100 nM | 100 to 500 nM | < 100 nM | – | – | – | C[C@H]1CN(C(=O)OC(C)(C)C)CCN1c1nccc2c1c(C1CC1)cn2-c1cc(C#N)ccn1 [Compound 446, tert-butyl (S)-4-(1-(4-cyanopyridin-2-yl)-3-cyclopropyl-1H-pyrrolo[3,2-c]pyridin-4-yl)-3-methylpiperazine-1-carboxylate]
